Reference: publication PMC12752627, “Discovery of a Potent and Selective TEAD Degrader with Durable Degradation Activity” (Advanced Science, 2025)

Experiments:
Format in all cases: cell-based
TEAD1 = target: T1, TEAD1 (Homo sapiens, UniProt P28347+Q96SW2); test: Immunoblot of TEAD1 degradation in TEAD1-mNeonGreen fusion NCI-H1299 cells
T1 construct: endogenous in cells; host or cells: NCI-H1299 (TEAD1-mNeonGreen knock-in)
Procedure: (§1) Immunoblotting was carried out as previously described.^[ [29] ^] Cells were seeded in 6‐well plates (Yeasen, #84011ES50) at a density of 1 million cells per well. The following day, cells were treated with compounds at the required concentrations, with the DMSO concentration kept below 0.4‰ to prevent toxic effects on the cells. The collected cell pellets were washed three times with PBS (Meilunbio, #MA0015) and resuspended in 120 µL of RIPA lysis buffer (Meilunbio, #MA0151) containing 1% protease inhibitor (Meilunbio, #MB2678‐2). The cells were then sonicated on ice and centrifuged at 12 000 rpm for 15 min at 4 °C to remove cellular debris. Protein concentrations were determined using the BCA Protein Quantification Kit (Meilunbio, #MA0082‐1). The protein samples were normalized, boiled at 99 °C for 10 min, and then subjected to electrophoresis on a 10% SDS‐PAGE gel. The separated protein bands were transferred to nitrocellulose membranes, blocked with TBST containing 5% BSA, and incubated with the indicated primary antibodies. Finally, the blots were imaged using an Amersham Typhoon NIR imager.

TEAD1/3, TAZ = test: Immunoblot in A172 cells; details: 24 h
Procedure: as §1

867 cancer cell lines = test: PRISM assay (barcoded cell line screening, 5 days); design: KG-FP-003-AUC: scale not given here;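 further: top test concentration 10 mM in eight-point dilution series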
Procedure: The principle of the PRISM assay has been described elsewhere and was conducted as previously outlined by the PRISM team at the Broad Institute.^[ [14], [31] ^] In PRISM (MTS027) experiments, KG‐FP‐003 was tested across 867 different cancer cell lines. Cells were treated with eight concentration gradients, ranging from 4.6 nM to […], in triplicate dilutions over a period of five days. Each plate was treated with 20 µM bortezomib as a positive control and DMSO as a negative control. Three replicate experiments were performed for each compound. The resulting data were analyzed using GraphPad PRISM 9.5.

T1 sequence (P28347 whole entry, the tested form may be a part): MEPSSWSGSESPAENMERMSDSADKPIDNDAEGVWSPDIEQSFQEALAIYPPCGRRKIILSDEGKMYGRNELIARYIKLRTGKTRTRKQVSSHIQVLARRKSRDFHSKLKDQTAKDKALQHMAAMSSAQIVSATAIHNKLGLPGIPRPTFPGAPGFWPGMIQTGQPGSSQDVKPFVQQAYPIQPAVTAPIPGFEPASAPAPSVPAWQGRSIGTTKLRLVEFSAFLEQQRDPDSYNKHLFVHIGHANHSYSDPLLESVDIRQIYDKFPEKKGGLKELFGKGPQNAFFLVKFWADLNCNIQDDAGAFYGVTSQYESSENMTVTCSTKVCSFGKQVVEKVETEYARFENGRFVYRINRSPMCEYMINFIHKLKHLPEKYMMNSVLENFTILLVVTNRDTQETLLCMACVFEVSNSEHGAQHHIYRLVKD
T1 sequence (Q96SW2 whole entry, the tested form may be a part): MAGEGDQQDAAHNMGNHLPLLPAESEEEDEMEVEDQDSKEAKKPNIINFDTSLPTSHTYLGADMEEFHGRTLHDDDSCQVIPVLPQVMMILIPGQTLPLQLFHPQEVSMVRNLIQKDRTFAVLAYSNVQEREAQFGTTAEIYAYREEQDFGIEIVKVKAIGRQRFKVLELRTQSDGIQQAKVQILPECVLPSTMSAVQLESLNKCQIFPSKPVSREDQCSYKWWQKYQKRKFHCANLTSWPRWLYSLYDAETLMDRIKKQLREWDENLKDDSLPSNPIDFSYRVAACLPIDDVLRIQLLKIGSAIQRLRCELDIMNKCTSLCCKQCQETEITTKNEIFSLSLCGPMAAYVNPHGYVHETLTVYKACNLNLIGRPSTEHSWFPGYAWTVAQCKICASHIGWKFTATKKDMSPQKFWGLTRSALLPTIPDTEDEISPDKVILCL
T1 sequence (Q16531 2-1140 partner limits assumed): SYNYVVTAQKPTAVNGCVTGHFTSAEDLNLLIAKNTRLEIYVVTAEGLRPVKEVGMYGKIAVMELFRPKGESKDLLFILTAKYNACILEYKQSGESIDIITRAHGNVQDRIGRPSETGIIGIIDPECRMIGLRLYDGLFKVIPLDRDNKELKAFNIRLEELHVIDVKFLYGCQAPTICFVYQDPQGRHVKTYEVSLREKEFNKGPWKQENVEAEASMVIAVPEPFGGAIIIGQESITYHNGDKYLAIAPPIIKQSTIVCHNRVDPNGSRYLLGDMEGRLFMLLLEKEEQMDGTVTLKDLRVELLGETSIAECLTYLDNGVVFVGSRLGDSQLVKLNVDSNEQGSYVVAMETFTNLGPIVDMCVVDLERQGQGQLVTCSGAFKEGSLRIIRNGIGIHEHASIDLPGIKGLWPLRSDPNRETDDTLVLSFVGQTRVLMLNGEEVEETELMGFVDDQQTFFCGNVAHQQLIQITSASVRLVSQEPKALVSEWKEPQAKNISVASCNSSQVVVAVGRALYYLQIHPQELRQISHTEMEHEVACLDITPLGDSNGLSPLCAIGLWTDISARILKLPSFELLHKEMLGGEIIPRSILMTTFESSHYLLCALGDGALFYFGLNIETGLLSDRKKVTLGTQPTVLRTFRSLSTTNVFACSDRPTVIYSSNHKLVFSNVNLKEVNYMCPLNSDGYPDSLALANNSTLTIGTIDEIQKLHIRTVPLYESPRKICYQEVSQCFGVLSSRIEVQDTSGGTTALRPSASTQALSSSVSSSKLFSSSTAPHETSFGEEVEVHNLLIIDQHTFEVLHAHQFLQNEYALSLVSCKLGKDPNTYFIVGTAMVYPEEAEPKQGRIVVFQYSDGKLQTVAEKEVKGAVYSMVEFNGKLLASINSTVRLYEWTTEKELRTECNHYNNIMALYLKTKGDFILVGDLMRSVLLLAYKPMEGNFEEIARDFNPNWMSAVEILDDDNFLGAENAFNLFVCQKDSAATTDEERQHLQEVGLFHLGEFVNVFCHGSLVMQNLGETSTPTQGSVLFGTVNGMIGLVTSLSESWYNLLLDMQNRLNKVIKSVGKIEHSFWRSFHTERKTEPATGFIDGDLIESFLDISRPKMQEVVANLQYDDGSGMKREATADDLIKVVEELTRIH

CNC(=O)c1cc2c(c(F)c1-c1c(Cl)c(F)cc3c1C[C@@](CN[C@H]1CC[C@H](C(=O)N4CCC(CC5CCN(C(=O)COc6ccc(N7CCC(=O)NC7=O)c(C)c6)CC5)CC4)CC1)(c1ccccc1)O3)[C@@H](O)[C@@H](C)C2 [KG-FP-003]
Target degradation by immunoblot (TEAD1; 10 nM, 6 h, TEAD1-mNeonGreen NCI-H1299 cells): significant target degradation
Time to near-complete depletion of TEAD1 (TEAD1; 100 nM, TEAD1-mNeonGreen fusion NCI-H1299 cells): ≤ 2 h
Degradation of TEAD1 and TEAD3 by immunoblot (TEAD1/3, TAZ): complete degradation
TAZ protein expression by immunoblot (TEAD1/3, TAZ): increased TAZ protein expression
KG-FP-003-AUC (867 cancer cell lines; 42MGBA_CENTRAL_NERVOUS_SYSTEM ACH-000323 PR500): 0.75
KG-FP-003-AUC (867 cancer cell lines; 639V_URINARY_TRACT ACH-000973 PR500): 0.67
KG-FP-003-AUC (867 cancer cell lines; 647V_URINARY_TRACT ACH-000896 PR500): 0.66
KG-FP-003-AUC (867 cancer cell lines; 697_HAEMATOPOIETIC_AND_LYMPHOID_TISSUE ACH-000070 PR300): 0.90
KG-FP-003-AUC (867 cancer cell lines; 769P_KIDNEY ACH-000411 PR500): 0.78
KG-FP-003-AUC (867 cancer cell lines; 786O_KIDNEY ACH-000649 PR500): 0.96
KG-FP-003-AUC (867 cancer cell lines; 5637_URINARY_TRACT ACH-000905 PR500): 0.63
KG-FP-003-AUC (867 cancer cell lines; 8305C_THYROID ACH-001306 PR500): 0.73
KG-FP-003-AUC (867 cancer cell lines; 8505C_THYROID ACH-001307 PR500): 0.68
KG-FP-003-AUC (867 cancer cell lines; CBAGPN_BONE ACH-001022 PR300): 0.91
KG-FP-003-AUC (867 cancer cell lines; CCFSTTG1_CENTRAL_NERVOUS_SYSTEM ACH-000329 PR500): 1.00
KG-FP-003-AUC (867 cancer cell lines; CCK81_LARGE_INTESTINE ACH-000963 PR300): 1.00
KG-FP-003-AUC (867 cancer cell lines; CCLFPEDS0003T_SOFT_TISSUE ACH-001164 PR300): 1.00
KG-FP-003-AUC (867 cancer cell lines; CCLP1_BILIARY_TRACT ACH-001959 PR300): 0.63
KG-FP-003-AUC (867 cancer cell lines; CCSW1_BILIARY_TRACT ACH-001960 PR300): 0.99
KG-FP-003-AUC (867 cancer cell lines; CFPAC1_PANCREAS ACH-000138 PR500): 0.95
KG-FP-003-AUC (867 cancer cell lines; CH157MN_CENTRAL_NERVOUS_SYSTEM ACH-000025 PR300): 0.77
KG-FP-003-AUC (867 cancer cell lines; CHAGOK1_LUNG ACH-000867 PR300): 0.78
KG-FP-003-AUC (867 cancer cell lines; CHL1_SKIN ACH-001024 PR500): 1.00
KG-FP-003-AUC (867 cancer cell lines; CHLA06ATRT_SOFT_TISSUE ACH-001028 PR300): 0.99
KG-FP-003-AUC (867 cancer cell lines; CHLA10_BONE ACH-001029 PR300): 0.99
KG-FP-003-AUC (867 cancer cell lines; CHLA15_AUTONOMIC_GANGLIA ACH-001300 PR300): 0.98
KG-FP-003-AUC (867 cancer cell lines; CHLA57_BONE ACH-001033 PR300): 0.75
KG-FP-003-AUC (867 cancer cell lines; CHLA200_CENTRAL_NERVOUS_SYSTEM ACH-001293 PR300): 0.99
KG-FP-003-AUC (867 cancer cell lines; CJM_SKIN ACH-000458 PR500): 0.54
KG-FP-003-AUC (867 cancer cell lines; CL11_LARGE_INTESTINE ACH-000249 PR300): 1.00
KG-FP-003-AUC (867 cancer cell lines; CL34_LARGE_INTESTINE ACH-000895 PR500): 0.99
KG-FP-003-AUC (867 cancer cell lines; CMLT1_HAEMATOPOIETIC_AND_LYMPHOID_TISSUE ACH-000920 PR300): 0.82
KG-FP-003-AUC (867 cancer cell lines; COGAR359_SOFT_TISSUE ACH-001289 PR300): 0.62
KG-FP-003-AUC (867 cancer cell lines; COGE352_BONE ACH-001038 PR300): 0.85
KG-FP-003-AUC (867 cancer cell lines; COGN278_AUTONOMIC_GANGLIA ACH-001301 PR300): 1.00
KG-FP-003-AUC (867 cancer cell lines; COLO320_LARGE_INTESTINE ACH-000202 PR300): 0.97
KG-FP-003-AUC (867 cancer cell lines; COLO668_LUNG ACH-000803 PR500): 1.00
KG-FP-003-AUC (867 cancer cell lines; COLO679_SKIN ACH-000805 PR500): 0.97
KG-FP-003-AUC (867 cancer cell lines; COLO680N_OESOPHAGUS ACH-000717 PR500): 0.91
KG-FP-003-AUC (867 cancer cell lines; COLO741_SKIN ACH-000582 PR500): 1.00
KG-FP-003-AUC (867 cancer cell lines; COLO783_SKIN ACH-000812 PR500): 0.85
KG-FP-003-AUC (867 cancer cell lines; COLO792_SKIN ACH-000968 PR500): 0.98
KG-FP-003-AUC (867 cancer cell lines; COLO800_SKIN ACH-000401 PR500): 0.99
KG-FP-003-AUC (867 cancer cell lines; CORL23_LUNG ACH-000662 PR500): 0.99
KG-FP-003-AUC (867 cancer cell lines; CORL88_LUNG ACH-000508 PR300): 0.94
KG-FP-003-AUC (867 cancer cell lines; CORL105_LUNG ACH-000161 PR500): 0.95
KG-FP-003-AUC (867 cancer cell lines; CORL279_LUNG ACH-000257 PR300): 0.80
KG-FP-003-AUC (867 cancer cell lines; COV318_OVARY ACH-000256 PR300): 0.82
KG-FP-003-AUC (867 cancer cell lines; COV362_OVARY ACH-000278 PR500): 0.94
KG-FP-003-AUC (867 cancer cell lines; COV434_OVARY ACH-000123 PR500): 0.90
KG-FP-003-AUC (867 cancer cell lines; COV644_OVARY ACH-000608 PR300): 0.68
KG-FP-003-AUC (867 cancer cell lines; CW2_LARGE_INTESTINE ACH-000998 PR300): 1.00
KG-FP-003-AUC (867 cancer cell lines; CW9019_SOFT_TISSUE ACH-001050 PR300): 0.68
PRISM AUC (867 cancer cell lines; Cell line: A172, 5 days): 0.43
